Measurements as given in patent US20220184008A1, “MODULATORS OF INTRACELLULAR CHLORIDE CONCENTRATION” (FONDAZIONE ISTITUTO ITALIANO DI TECNOLOGIA, priority 2019, published 2022).

Key:
[1] = biological target: T1, NKCC1 (Homo sapiens, UniProt P55011); assay: Chloride kinetic assay (Cl-sensitive YFP) in NKCC1-transfected HEK293 cells; type: cell-based; details: 10 μM, NKCC1-transfected HEK293
T1 construct: expressed in transfected cells; host or cells: HEK293
T1 sequence (P55011 1-1212): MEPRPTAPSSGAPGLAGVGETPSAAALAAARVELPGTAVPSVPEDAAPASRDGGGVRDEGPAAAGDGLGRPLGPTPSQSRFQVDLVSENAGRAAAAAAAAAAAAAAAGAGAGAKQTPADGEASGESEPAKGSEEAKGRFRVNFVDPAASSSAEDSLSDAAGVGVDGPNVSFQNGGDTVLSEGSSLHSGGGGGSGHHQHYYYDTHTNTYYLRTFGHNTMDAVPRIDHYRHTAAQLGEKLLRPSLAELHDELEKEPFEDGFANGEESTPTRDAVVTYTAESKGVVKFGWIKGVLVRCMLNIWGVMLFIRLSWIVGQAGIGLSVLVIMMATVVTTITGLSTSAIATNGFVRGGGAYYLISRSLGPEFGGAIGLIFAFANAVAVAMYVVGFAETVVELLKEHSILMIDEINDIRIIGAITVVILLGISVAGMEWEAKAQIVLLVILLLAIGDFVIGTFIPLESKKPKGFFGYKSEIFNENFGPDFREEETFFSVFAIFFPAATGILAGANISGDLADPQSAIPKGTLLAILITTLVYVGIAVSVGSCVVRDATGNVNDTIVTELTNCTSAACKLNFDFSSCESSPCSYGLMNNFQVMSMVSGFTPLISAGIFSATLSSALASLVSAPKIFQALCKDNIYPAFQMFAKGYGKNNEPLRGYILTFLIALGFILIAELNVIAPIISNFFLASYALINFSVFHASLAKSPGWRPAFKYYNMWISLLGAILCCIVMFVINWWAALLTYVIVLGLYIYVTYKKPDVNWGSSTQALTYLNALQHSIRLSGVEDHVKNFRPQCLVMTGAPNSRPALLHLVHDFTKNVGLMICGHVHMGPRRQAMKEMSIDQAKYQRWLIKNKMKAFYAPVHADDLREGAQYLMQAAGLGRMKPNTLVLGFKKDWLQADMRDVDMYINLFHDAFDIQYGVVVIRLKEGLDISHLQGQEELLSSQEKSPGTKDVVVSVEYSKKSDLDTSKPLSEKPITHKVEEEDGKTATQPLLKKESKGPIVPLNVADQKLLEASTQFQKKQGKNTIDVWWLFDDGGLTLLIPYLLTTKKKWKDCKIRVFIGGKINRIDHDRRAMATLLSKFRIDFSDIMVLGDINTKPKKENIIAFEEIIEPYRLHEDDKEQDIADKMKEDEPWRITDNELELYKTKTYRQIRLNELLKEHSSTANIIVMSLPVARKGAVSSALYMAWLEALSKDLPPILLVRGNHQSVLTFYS
Procedure: FIG. 1: In vitro testing of the NKCC1 inhibitors in the chloride kinetic assay a) Example traces obtained in the chloride kinetic assay on HEK cells transfected with the YFP (mock) or with YFP and NKCC1. The arrow indicates the addition of NaCl (final concentration 74 mM) used to initiate the flux assay. b) Quantification of the effect of bumetanide (10 μM and 100 μM) or furosemide (10 μM and 100 μM) in the chloride kinetic assay on mock or NKCC1-transfected HEK293 cells. Data represents mean±sem from 5 independent experiments. c) Quantification of the effect of bumetanide and furosemide and 2 selected compounds (3.8, 3.17) in the chloride kinetic assay on NKCC1-transfected HEK293 cells. Data represents mean±sem from 5 independent experiments, and they are represented as % of the controls. *P<0.05, **P<0.01, ***P<0.001 Kruskal-Wallis Anova (Dunn's Post hoc Test); ###P<0.001 two-tailed unpaired Student t-test.
To screen in vitro the compounds efficiency in blocking NKCC1, a functional NKCC1 transporter assay was performed by measuring variation of Cl^− ion concentration in the cell through a Cl^− sensitive membrane-tagged yellow fluorescent protein (mbYFPQS, Addgene). mbYFPQS fluorescence is inversely dependent on the concentration of Cl^− inside the cell thus allowing an indirect estimation of the Cl^− transporter activity. In particular, HEK293 cells were transfected with NKCC1 or mock construct (control) together with the Cl^− sensitive YFP. After 2 DIV, the cells were treated with bumetanide and furosemide (as positive controls) or with each of the tested compounds of the invention in a Cl^− free medium. After 30 min, the inhibitory activity of the compounds was tested by monitoring fluorescence upon application of NaCl (FIG. 1a). Transported by NKCC1, Cl binds the YFP, leading to a fluorescence decrease. […] With the Cl kinetic assay, the NKCC1 inhibitory activity of the selected compounds was tested (FIG. 1c).

[2] = test system: NKCC1; assay: Calcium kinetic assay in primary cultures of immature hippocampal neurons; type: cell-based; details: 10 μM, immature neurons 3 DIV
Procedure: FIG. 2: In vitro testing of the NKCC1 inhibitors in a calcium kinetic assay. a) Example traces of fluorescence levels upon application of GABA (100 μM) and KCl (90 mM) used to trigger calcium influx in primary neuronal cultures treated after 3 days in culture (3 DIV) with vehicle, bumetanide, furosemide and compounds 3.8, 3.13 and 3.17 in the calcium kinetic assay. b) Quantification of the average fluorescence increase upon GABA application normalized to the increase upon KCl application in neurons treated with bumetanide, furosemide and 3 exemplary compounds (3.8, 3.13, 3.17) (10 μM, 100 μM). Data represents mean±sem from 5 independent experiments, and they are presented as % of the control. *P<0.05, **P<0.01, ***P<0.001 Kruskal-Wallis Anova (Dunn's Post hoc Test).
Next, the compounds of the invention were tested for their ability to revert the depolarizing GABAergic signaling in immature neurons. This effect was indirectly measured as calcium influx into the cells with an in vitro calcium kinetic assay in primary cultures of hippocampal neurons. The calcium kinetic assay exploits the physiological, endogenous, high expression of NKCC1 in immature neurons, which causes depolarizing actions of GABA and can activate voltage-gated Ca^2+ channels. Thus, in immature neurons, a compound that blocks NKCC1 is predicted to inhibit Ca^2+ responses upon GABA application. Immature neurons were cultured for 3 days in vitro (3 DIV) and loaded for 15 min with a calcium-sensitive dye (Fluo4). Then, the neurons were treated with bumetanide and furosemide (as positive controls) or with each of the selected compounds for 15 min. As a functional readout, the fluorescence level was monitored in these cultures before and after application of GABA (100 μM, for 20 sec). To test for neuronal viability at the end of the experiment, KCl was applied (90 mM, for 40 sec), which strongly depolarizes neurons, causing high activation of voltage-gated Ca^2+ channels in live cells. To quantify how bumetanide, furosemide, and selected compounds influenced NKCC1 inhibition, the fluorescence values were normalized upon GABA application to the fluorescence levels upon KCl application in treated neurons.

NKCC1 Inhibition % 10 μM HEK Chloride YFP assay ([1]; Table 1): Inactive | NKCC1 Inhibition % 10 μM HEK Chloride YFP assay ([1]; Table 2): Inactive
SMILES: O=C(O)c1ccc(NCCCCCCCC(F)(F)F)c(S(=O)(=O)N2CCCCC2)c1 [Compound 5.6, 3-(1-piperidylsulfonyl)-4-(8,8,8-trifluorooctylamino) benzoic acid]
NKCC1 Inhibition % 10 μM Neurons Calcium kinetic assay ([2]; Table 1): 55% | NKCC1 Inhibition % 10 μM Neurons Calcium kinetic assay ([2]; Table 2): 55%
